Measured values: the supplement of paper PMC10307832

Key:
Test in all cases: relative viability (nuclei count vs DMSO), 5 days (fraction); higher = more cells survive
[1] = compound: CC(C)C[C@H](NC(=O)[C@H](CCc1ccccc1)NC(=O)CN1CCOCC1)C(=O)N[C@@H](Cc1ccccc1)C(=O)N[C@@H](CC(C)C)C(=O)[C@@]1(C)CO1 [Carfilzomib] + CC(=O)Nc1cccc(-n2c(=O)n(C3CC3)c(=O)c3c(Nc4ccc(I)cc4F)n(C)c(=O)c(C)c32)c1 [Trametinib] (partner 0.02 µM)
Summary of the method: (§1)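 Lung cancer cell lines were seeded in 1536-well plates and dosed by pin tool the next day, with either a single drug or a fixed anchor-drug dose combined with five library-drug doses (not always all listed) spaced in √10 steps. Five days later, one step fixed the cells and stained their nuclei (final 0.05% Triton X-100, 1% formaldehyde, 1 ug/ml Hoechst), and nuclei were counted on 4× images. Relative viability is the nuclei count in treated wells divided by the count in vehicle wells, and each value is the median of duplicate plates.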

[2] = compound: O=C(c1cc(Cc2n[nH]c(=O)c3ccccc23)ccc1F)N1CCN(C(=O)C2CC2)CC1 [Olaparib] + CS(=O)(=O)CCNCc1ccc(-c2ccc3ncnc(Nc4ccc(OCc5cccc(F)c5)c(Cl)c4)c3c2)o1 [Lapatinib] (partner 2 µM)
Summary of the method: as §1

[3] = compound: O=C(c1cc(Cc2n[nH]c(=O)c3ccccc23)ccc1F)N1CCN(C(=O)C2CC2)CC1 [Olaparib] + CCNC(=O)c1noc(-c2cc(C(C)C)c(O)cc2O)c1-c1ccc(CN2CCOCC2)cc1 [Luminespib] (partner 0.01 µM)
Summary of the method: as §1

[4] = compound: C[C@@H](Oc1cc(-c2cnn(C3CCNCC3)c2)cnc1N)c1c(Cl)ccc(F)c1Cl [Crizotinib] + Cc1nc(NC(=O)N2CCC[C@H]2C(N)=O)sc1-c1ccnc(C(C)(C)C(F)(F)F)c1 [Alpelisib] (partner 2 µM)
Summary of the method: as §1

| Cell Line | relative viability ([1]; first compound 0.001 µM) | relative viability ([1]; first compound 0.003162 µM) | relative viability ([1]; first compound 0.01 µM) | relative viability ([1]; first compound 0.03162 µM) | relative viability ([1]; first compound 0.1 µM) | relative viability ([2]; first compound 0.08 µM) | relative viability ([2]; first compound 0.253 µM) | relative viability ([2]; first compound 2.53 µM) | relative viability ([2]; first compound 8 µM) | relative viability ([3]; first compound 0.08 µM) | relative viability ([3]; first compound 0.253 µM) | relative viability ([3]; first compound 2.53 µM) | relative viability ([3]; first compound 8 µM) | relative viability ([4]; first compound 0.01 µM) | relative viability ([4]; first compound 0.03162 µM) | relative viability ([4]; first compound 0.1 µM) | relative viability ([4]; first compound 0.3162 µM) | relative viability ([4]; first compound 1 µM) |
| --- | --- | --- | --- | --- | --- | --- | --- | --- | --- | --- | --- | --- | --- | --- | --- | --- | --- | --- |
| NCI-H358 | 0.139 | 0.136 | 0.141 | 0.0944 | 0.0819 | 0.388 | 0.434 | 0.44 | 0.426 | 0.324 | 0.253 | 0.24 | 0.206 | 0.81 | 0.802 | 0.798 | 0.852 | 0.759 |
| NCI-H460 | 0.116 | 0.143 | 0.181 | 0.13 | 0.0157 | 1.28 | 0.874 | 0.679 | 0.172 | 0.0349 | 0.0392 | 0.0354 | 0.034 | 0.495 | 0.404 | 0.46 | 0.504 | 0.442 |
| NCI-H520 | 0.531 | 0.697 | 0.598 | 0.124 | 0.134 | 1.08 | 0.795 | 0.725 | 0.525 | 0.205 | 0.277 | 0.255 | 0.23 | 0.726 | 0.92 | 0.891 | 1.07 | 0.962 |
| NCI-H596 | 0.785 | 0.804 | 0.952 | 0.69 | 0.205 | 1.09 | 0.988 | 1.06 | 0.73 | 0.93 | 0.883 | 0.788 | 0.638 | 0.396 | 0.528 | 0.509 | 0.564 | 0.481 |
| NCI-H647 | 0.415 | 0.529 | 0.538 | 0.0767 | 0.0407 | 1.43 | 0.984 | 1.13 | 0.59 | 0.126 | 0.186 | 0.15 | 0.121 | 1.08 | 1.16 | 1.02 | 0.933 | 1.01 |
| NCI-H650 | 0.899 | 1.1 | 1.08 | 0.798 | 0.169 | 1.05 | 0.834 | 0.903 | 0.742 | 0.924 | 0.816 | 0.577 | 0.533 | 0.955 | 1.2 | 1.06 | 1.06 | 1.17 |
| NCI-H661 | 0.642 | 0.635 | 0.599 | 0.526 | 0.276 | 0.638 | 0.443 | 0.426 | 0.543 | 1.02 | 0.869 | 0.878 | 0.619 | 0.665 | 0.684 | 0.615 | 0.699 | 0.725 |
| NCI-H727 | 0.428 | 0.376 | 0.46 | 0.41 | 0.312 | 0.945 | 0.778 | 0.651 | 0.465 | 0.446 | 0.531 | 0.461 | 0.346 | 0.655 | 0.575 | 0.583 | 0.674 | 0.685 |
| NCI-H838 | 0.517 | 0.575 | 0.614 | 0.215 | 0.0888 | 0.94 | 0.857 | 0.887 | 1.09 | 0.332 | 0.218 | 0.229 | 0.219 | 0.997 |  | 1.03 |  | 0.964 |
| NCI-H1355 | 0.42 | 0.469 | 0.422 | 0.44 | 0.139 | 1.13 | 0.863 | 1 | 0.944 | 0.648 | 0.694 | 0.52 | 0.572 | 0.832 | 0.806 | 0.857 | 0.849 | 0.878 |
| NCI-H1395 |  | 0.997 | 1.11 | 0.566 | 0.344 | 0.98 | 0.661 | 0.839 | 0.435 | 0.633 | 0.533 | 0.62 | 0.447 | 0.996 | 0.928 | 1.09 | 1.11 | 1.26 |
| NCI-H1437 | 0.497 | 0.568 | 0.637 | 0.312 | 0.194 | 0.801 | 0.652 | 0.717 | 0.599 | 1.26 | 1.08 | 1.06 | 0.809 | 0.869 | 0.973 | 0.925 | 0.938 | 0.907 |
| NCI-H1651 | 0.79 | 0.9 | 0.794 | 0.304 | 0.119 | 0.712 | 0.752 | 0.628 | 0.27 | 0.798 | 0.605 | 0.431 | 0.216 | 0.823 | 0.933 | 0.858 |  | 0.965 |
| NCI-H1666 | 0.907 | 0.852 | 0.988 | 0.72 | 0.513 | 0.845 | 0.633 | 0.577 | 0.532 | 1.1 | 0.879 | 0.889 | 0.697 | 0.964 |  | 1 | 0.984 | 0.959 |
| NCI-H1734 | 0.67 | 0.785 | 0.627 | 0.641 | 0.152 | 1.1 | 0.974 | 0.933 | 0.749 | 0.212 | 0.205 | 0.185 | 0.183 | 0.659 | 0.646 | 0.661 |  | 0.633 |
| NCI-H1755 | 0.809 | 0.837 | 0.668 | 0.769 | 0.511 | 1.15 | 0.916 | 1.08 | 0.967 | 0.743 | 0.411 | 0.41 | 0.418 | 0.899 | 0.844 | 0.938 | 0.902 | 0.959 |
| NCI-H1792 |  | 0.456 | 0.451 | 0.396 | 0.174 | 0.895 | 0.738 | 0.82 | 0.779 | 0.484 | 0.359 | 0.409 | 0.425 | 0.627 | 0.789 | 0.658 | 0.663 | 0.726 |
| NCI-H1915 | 0.266 | 0.302 | 0.295 | 0.289 | 0.106 | 1.05 | 0.813 | 0.778 | 0.76 | 0.685 | 0.575 | 0.408 | 0.387 | 1.08 | 1.08 | 1.14 |  | 1.09 |
